Data: patent US7241902B2, “Allylmercaptocaptopril compounds and uses thereof” (Yeda Research and Development Co. Ltd., priority 2001, dated 2007)

Key:
[1] = molecular target: T1, angiotensin converting enzyme (Homo sapiens, UniProt P12821); assay: Angiotensin converting enzyme activity in vitro in reference serum (Carmel et al 1979); type: biochemical; conditions: serial dilutions added to a reference serum; FIG. 2
T1 construct: from tissue
Procedure: The activity of angiotensin-converting enzyme was assayed according to Carmel et al (1979).
In order to determine if CPSSA reacts in a similar way to captopril, which inhibits the activity of angiotensin converting enzyme, serial dilutions of CPSSA were prepared.

[2] = tested on: Sprague-Dawley rats fed fructose-rich diet; assay: Fructose-rich diet rat model (Reaven's model): blood pressure, serum triglycerides, insulin, body weight; type: in vivo; conditions: for effect on serum insulin levels: FIG. 5
Procedure: In the present study, the effects of CPSSA and captopril on blood pressure, as well as serum levels of triglycerides and insulin, were compared. RESULTS
Model Sprague-Dawley male rates, five rats/group, 220–240 g body weight, were fed with a fructose-rich diet for three weeks, followed by two weeks of treatment with either CPSSA or captopril predissolved in the drinking water in doses of CPSSA of 40 and 57 mg/kg and 80 mg/kg captopril, together with the fructose-rich diet. The control group was fed only the fructose-rich diet. Measurements of body weight, blood pressure, serum levels of triglycerides and insulin were conducted at 0, 3, and 5 weeks into the treatment.

papain = molecular target: T2, papain (Carica papaya, UniProt P00784); assay: SH modification of papain (residual enzyme activity, benzoyl arginine-p-nitro anilide hydrolysis); type: biochemical
T2 sequence (P00784 134-345): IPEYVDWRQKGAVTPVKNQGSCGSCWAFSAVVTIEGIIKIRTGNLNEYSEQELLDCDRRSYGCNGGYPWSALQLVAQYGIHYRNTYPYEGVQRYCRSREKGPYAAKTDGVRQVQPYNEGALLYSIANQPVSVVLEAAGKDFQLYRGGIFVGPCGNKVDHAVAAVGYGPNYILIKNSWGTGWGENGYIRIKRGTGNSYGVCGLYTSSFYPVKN
Procedure: CPSSA (0–5 mM) modification of activated and gel-filtered papain was conducted at room temperature in 50 mM sodium acetate, 2 mM EDTA pH 6.1. The inhibited papain was reactivated with 5 mM reduced glutathione.
Activated papain was mixed with various concentrations of CPSSA for 10 minutes at room temperature in 50 mM sodium acetate, 2 mM EDTA buffer, pH 6.5. The residual enzyme activity was measured by monitoring the rate of hydrolysis of the substrate benzoyl arginine-p-nitro anilide at 382 nm.

[3] = two weeks in drinking water, CPSSA 40 and 57 mg/kg, captopril 80 mg/kg

T1 sequence (P12821 30-1232 limits assumed): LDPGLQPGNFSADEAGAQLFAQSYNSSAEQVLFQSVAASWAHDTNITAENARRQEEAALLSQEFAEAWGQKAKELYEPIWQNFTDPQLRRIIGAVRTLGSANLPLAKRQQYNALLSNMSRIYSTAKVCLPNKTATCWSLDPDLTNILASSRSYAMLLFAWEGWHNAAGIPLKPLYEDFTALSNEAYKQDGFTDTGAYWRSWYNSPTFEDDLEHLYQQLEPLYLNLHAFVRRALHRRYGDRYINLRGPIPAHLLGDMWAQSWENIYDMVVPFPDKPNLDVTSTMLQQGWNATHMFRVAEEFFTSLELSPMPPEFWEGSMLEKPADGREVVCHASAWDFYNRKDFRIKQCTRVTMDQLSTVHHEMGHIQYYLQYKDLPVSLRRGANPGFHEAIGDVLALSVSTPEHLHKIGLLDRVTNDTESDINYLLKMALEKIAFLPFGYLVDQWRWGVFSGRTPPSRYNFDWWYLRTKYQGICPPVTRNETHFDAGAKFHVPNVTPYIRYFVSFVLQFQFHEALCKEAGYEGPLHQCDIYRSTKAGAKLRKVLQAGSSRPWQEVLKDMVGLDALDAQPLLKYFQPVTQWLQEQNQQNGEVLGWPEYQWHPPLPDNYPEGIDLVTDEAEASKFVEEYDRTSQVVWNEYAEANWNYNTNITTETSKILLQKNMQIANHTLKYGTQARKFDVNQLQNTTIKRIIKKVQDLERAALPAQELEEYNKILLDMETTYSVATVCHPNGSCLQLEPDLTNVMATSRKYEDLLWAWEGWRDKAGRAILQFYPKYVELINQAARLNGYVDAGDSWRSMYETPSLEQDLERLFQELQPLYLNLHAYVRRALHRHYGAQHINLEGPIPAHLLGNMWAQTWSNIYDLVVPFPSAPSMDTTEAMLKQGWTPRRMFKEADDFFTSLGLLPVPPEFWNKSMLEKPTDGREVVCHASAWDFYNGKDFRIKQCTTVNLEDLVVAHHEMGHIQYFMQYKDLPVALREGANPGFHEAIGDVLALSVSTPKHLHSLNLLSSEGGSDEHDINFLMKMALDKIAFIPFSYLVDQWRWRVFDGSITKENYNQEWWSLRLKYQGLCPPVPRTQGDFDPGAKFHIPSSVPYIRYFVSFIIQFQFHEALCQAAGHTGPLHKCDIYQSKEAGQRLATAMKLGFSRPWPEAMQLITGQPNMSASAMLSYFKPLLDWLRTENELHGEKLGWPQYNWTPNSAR

C=CCSSC[C@H](C)C(=O)N1CCC[C@H]1C(=O)O [CPSSA, S-allylmercaptocaptopril]
ACE inhibition profile compared with captopril [1]: essentially does not differ from the inhibition profile obtained with captopril | inhibition of angiotensin converting enzyme activity [1]: concentration dependant | activity in decreasing levels of triglycerides compared with captopril ([2]; CPSSA 40 and 57 mg/kg vs captopril 80 mg/kg, FIG. 4): more active than captopril | effect on body weight [2, 3]: No effects on body weight | effect on blood pressure ([2]; two weeks in drinking water, CPSSA 40 and 57 mg/kg, captopril 80 mg/kg, FIG. 3): significantly decreased blood pressure | effect on serum levels of triglycerides ([2]; two weeks in drinking water, CPSSA 40 and 57 mg/kg, captopril 80 mg/kg, FIG. 4): reduced the serum levels of triglycerides | effect on serum insulin levels [2, 3]: decreased serum insulin levels to normal values | reactivation of inactivated papain (papain; 5 mM reduced glutathione): could be restored by reduced glutathione | papain enzyme activity after incubation (papain; 10 minutes at room temperature, 50 mM sodium acetate, 2 mM EDTA, CPSSA 0-5 mM, FIG. 1): significant decrease of enzyme activity | degree of inhibition of papain (papain; various concentrations of CPSSA, FIG. 1): concentration dependent

C[C@H](CS)C(=O)N1CCC[C@H]1C(=O)O [captopril, D-3-mercapto-2-methylpropanoyl-L-proline]
effect on body weight [2, 3]: No effects on body weight | effect on serum insulin levels [2, 3]: decreased serum insulin levels to normal values
